In patent US20170158702A1, “MULTIVALENT RAS BINDING COMPOUNDS” (KYRAS THERAPEUTICS, INC., priority 2015, published 2017):
Structures can show the parent of a compound that is named as a salt.

Columns and labels:
Assay type in all cases: cell-based
NCI-H460 = assay: Viability assay with NCI-H460 (CellTiter-Glo cytotoxicity assay, 72 h); details: NCI-H460 cell line, 72 h after compounds addition
Outline: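 NCI-H460 cells, RPMI 1640 + 10% FBS, seeded 1200/well and adhered overnight, then exposed to compounds at 9 points, 2-fold dilution, in triplicate, 0.5% DMSO final. Cellular ATP measured by CellTiter-Glo luminescence 72 h after addition.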

MIA PaCa-2 = assay: Viability assay with MIA PaCa-2; details: MIA PaCa-2, viability assay per Example 57
Outline: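 MIA PaCa-2 cells were seeded at 1200/well, allowed to adhere overnight, then treated in triplicate with 9-point 2-fold compound dilutions at 0.5% final DMSO. Viability was measured as cellular ATP by CellTiter-Glo luminescence 72 h after compound addition.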

HT-29 = assay: Viability assay with HT-29; details: HT-29, viability assay per Example 57
Method: NCI-H460 (Epithelial lung tissue; carcinoma; large cell lung cancer) were cultured in RPMI Medium 1640 (Invitrogen-22400105) supplemented with 10% fetal bovine serum (FBS; Invitrogen-10099141). All the cell lines were maintained in a humidified incubator at 37° C. with 5% CO2. Cell culture media and supplements were purchased from Invitrogen, and tissue culture flasks were purchased from Corning, 96-well plates were purchased from Greiner. CellTiter-Glo Luminescent Cell Viability Assay kits were purchased from Promega (Promega-G7573), cells counter Vi-Cell was purchased from Beckman, D300e digital dispenser was purchased from Tecan, detection instrument Envision was purchased from PerkinElmer.
Paclitaxel was purchased from SELLECK, test compounds, such as any one of the compounds disclosed herein, attained solubility in DMSO and when diluted into culture media. DMSO, solutions containing the test compounds, and culture media were warmed to 37° C. or room temperature for the solution preparation and dilutions.
NCI-H460 Cell line were seeded in 96-well plates (1200/well) and allowed to adhere to overnight (100 uL/well), for drug treatments with 2 fold dilution, 9 dose points, triplicates or vehicle control, compound stock solutions were prepared in DMSO and use D300e digital dispenser to add compounds to the wells to give the indicated final drug concentrations. Final DMSO concentration was 0.5%. Cellular ATP concentrations were assessed by using the CellTiter-Glo Cell Viability Assay as per the manufacturer's instructions 72 h after compounds addition. Additional cells lines were assayed with any one of the compounds disclosed herein according to the procedures described for the viability assay with NCI-H460.
A viability assay with HT-29 (Colorectal adenocarcinoma) was performed with compounds listed in Table 18 according to the procedures described in Example 57.

SMILES | EC50 (NCI-H460) | EC50 (MIA PaCa-2) | EC50 (HT-29)
COc1cccc(Cl)c1-c1cn(CCCN)c2ccc(CN3CCN(Cc4c(Cl)cccc4Cl)CC3)cc12 [C154; HCl] | ≤ 5 µM | ≤ 5 µM | ≤ 5 µM
NCCCn1cc(-c2cccc(CO)c2)c2cc(CN3CCN(Cc4ccccc4Cl)CC3)ccc21 [C152; HCl] | ≤ 5 µM | ≤ 5 µM | ≤ 5 µM
Cn1ccc(-c2cn(CCCN)c3ccc(CN4CCN(Cc5ccccc5Cl)CC4)cc23)n1 [C189; HCl] | 5 to 10 µM | 5 to 10 µM | ≤ 5 µM
NCCCn1cc(-c2ccc(OC(F)(F)F)cc2)c2cc(CN3CCN(CCc4ccccc4Cl)CC3)ccc21 [C140; HCl] | ≤ 5 µM | ≤ 5 µM | ≤ 5 µM
COc1cccc(CC2CCN(Cc3ccc4c(c3)c(-c3ccc(OC(F)(F)F)cc3CN)cn4CCCN)CC2)c1 [C262; HCl] | ≤ 5 µM | ≤ 5 µM | ≤ 5 µM
NCCCn1cc(-c2ccc(OC(F)(F)F)cc2CN)c2cc(CN3CCSCC3)ccc21 [C282; HCl] | ≤ 5 µM | ≤ 5 µM | ≤ 5 µM
CCC1CCN(S(=O)(=O)c2ccc3c(c2)c(-c2ccc(OC)cc2CN)cn3CCCN)CC1 [C270; HCl] | ≤ 5 µM | ≤ 5 µM | ≤ 5 µM
NCc1cc(OC(F)(F)F)ccc1-c1cn(CC2CCNCC2)c2ccc(CN3CCN(Cc4ccccc4Cl)CC3)cc12 [C237; HCl] | ≤ 5 µM | ≤ 5 µM | ≤ 5 µM
FC(F)(F)Oc1ccc(-c2cn(C3CCNC3)c3ccc(CN4CCN(Cc5ccccc5Cl)CC4)cc23)cc1 (stereo not drawn) [C197; HCl] | ≤ 5 µM | ≤ 5 µM | ≤ 5 µM
COc1ccc(-c2cn(CCCN)c3ccc(CN4CCN(Cc5ccccc5Cl)CC4)cc23)nc1 [C196; HCl] | ≤ 5 µM | ≤ 5 µM | ≤ 5 µM
COc1ncc(-c2cn(CCCN)c3ccc(CN4CCN(Cc5ccccc5Cl)CC4)cc23)cn1 [C143; HCl] | 5 to 10 µM | 5 to 10 µM | 5 to 10 µM
NCCCn1cc(-c2ccc(OC(F)(F)F)cc2)c2cc(CN3CCC(CC(F)(F)F)CC3)ccc21 [C130; HCl] | ≤ 5 µM | ≤ 5 µM | ≤ 5 µM
COc1ccc(CN2CCN(Cc3ccc4c(c3)c(-c3ccc(OC(F)(F)F)cc3CN)cn4CCCN)CC2)cc1 [C266; HCl] | ≤ 5 µM | ≤ 5 µM | ≤ 5 µM
FC(F)(F)Oc1ccc(-c2cn(CC3CNCCO3)c3ccc(CN4CCN(Cc5ccccc5Cl)CC4)cc23)cc1 (stereo not drawn) [C231; HCl] | ≤ 5 µM | ≤ 5 µM | ≤ 5 µM
Cc1cccnc1CN1CCN(Cc2ccc3c(c2)c(-c2ccc(OC(F)(F)F)cc2)cn3CCCN)CC1 [C145; HCl] | ≤ 5 µM | ≤ 5 µM | ≤ 5 µM
NCCCn1cc(-c2ccc(OC(F)(F)F)cc2)c2cc(CN3CCN(Cc4ccc(Cl)c(Cl)c4)CC3)ccc21 [C138; HCl] | ≤ 5 µM | ≤ 5 µM | ≤ 5 µM
NCCCn1cc(-c2ccc(C(N)=O)cc2)c2cc(CN3CCN(Cc4ccccc4Cl)CC3)ccc21 [C180; HCl] | ≤ 5 µM | ≤ 5 µM | ≤ 5 µM
NCc1ccc(-n2cc(-c3ccc(OC(F)(F)F)cc3)c3cc(CN4CCN(Cc5ccccc5Cl)CC4)ccc32)cc1 [C149; Formic Acid] | ≤ 5 µM | ≤ 5 µM | ≤ 5 µM
COc1cccc(CC2(CO)CCN(Cc3ccc4c(c3)c(-c3ccc(OC(F)(F)F)cc3CN)cn4CCCN)CC2)c1 [C294; HCl] | ≤ 5 µM | ≤ 5 µM | ≤ 5 µM
NCCCn1cc(-c2ccc(OC(F)(F)F)cc2)c2cc(CN3CCN(Cc4ncccc4Cl)CC3)ccc21 [C151; HCl] | ≤ 5 µM | ≤ 5 µM | ≤ 5 µM
NCCCn1cc(-c2ccc(OC(F)(F)F)cc2CN)c2cc(CN3CCC(O)CC3)ccc21 [C290; HCl] | 5 to 10 µM | 5 to 10 µM | 5 to 10 µM
COc1cccc(C(C)(C)N2CCN(Cc3ccc4c(c3)c(-c3ccc(OC(F)(F)F)cc3CN)cn4CCCN)CC2)c1 [C283; HCl] | ≤ 5 µM | ≤ 5 µM | ≤ 5 µM
